# Measured values as given in the kinase profiling compilation of Christmann-Franck et al. (2016).
# How the values were obtained:
# Experiment in all cases: KINOMEscan competition binding
# Conditions in all cases: compound 10.0 µM
# HUNK (human) = HUNK (human) (UniProt P57058)
# PDPK1 (human) = PDPK1 (human) (UniProt O15530)
# STK4 (human) = STK4 (human) (UniProt Q13043)
# DAPK2 (human) = DAPK2 (human) (UniProt Q9UIK4)
# CAMK1D (human) = CAMK1D (human) (UniProt Q8IU85)
# ULK3 (human) = ULK3 (human) (UniProt Q6PHR2)
# GAK (human) = GAK (human) (UniProt O14976)
# MAP3K13 (human) = MAP3K13 (human) (UniProt O43283)
# NEK11 (human) = NEK11 (human) (UniProt Q8NG66)
# FGFR3 (human) = FGFR3 (human) (UniProt P22607)
# PRKACB (human) = PRKACB (human) (UniProt P22694)
# CDKL1 (human) = CDKL1 (human) (UniProt Q00532)
# INSR (human) = INSR (human) (UniProt P06213)
# FES (human) = FES (human) (UniProt P07332)
# MAP2K1 (human) = MAP2K1 (human) (UniProt Q02750)
# STK32C (human) = STK32C (human) (UniProt Q86UX6)
# SGK3 (human) = SGK3 (human) (UniProt Q96BR1)
# PKN2 (human) = PKN2 (human) (UniProt Q16513)
# LCK (human) = LCK (human) (UniProt P06239)
# CHEK1 (human) = CHEK1 (human) (UniProt O14757)
# AURKB (human) = AURKB (human) (UniProt Q96GD4)
# [1] = system: ABL1 (human), P00519 [Y253F]
# PRKD1 (human) = PRKD1 (human) (UniProt Q15139)
# MUSK (human) = MUSK (human) (UniProt O15146)
# GSK3A (human) = GSK3A (human) (UniProt P49840)
# FRK (human) = FRK (human) (UniProt P42685)
# CAMK2A (human) = CAMK2A (human) (UniProt Q9UQM7)
# BMPR2 (human) = BMPR2 (human) (UniProt Q13873)
# MAPK14 (human) = MAPK14 (human) (UniProt Q16539)
# CHUK (human) = CHUK (human) (UniProt O15111)
# GRK4 (human) = GRK4 (human) (UniProt P32298)
# HIPK3 (human) = HIPK3 (human) (UniProt Q9H422)
# RPS6KA1 KD2 (human) = RPS6KA1 KD2 (human) (UniProt Q15418)
# ULK1 (human) = ULK1 (human) (UniProt O75385)
# CAMK1G (human) = CAMK1G (human) (UniProt Q96NX5)
# DCLK1 (human) = DCLK1 (human) (UniProt O15075)
# IRAK1 (human) = IRAK1 (human) (UniProt P51617)
# KIT (human) = KIT (human) (UniProt P10721)
# CSK (human) = CSK (human) (UniProt P41240)
# LIMK2 (human) = LIMK2 (human) (UniProt P53671)
# [2] = system: FLT3 (human), P36888 [D835H]
# Chain of CHUK (human) (O15111 whole entry, looked up): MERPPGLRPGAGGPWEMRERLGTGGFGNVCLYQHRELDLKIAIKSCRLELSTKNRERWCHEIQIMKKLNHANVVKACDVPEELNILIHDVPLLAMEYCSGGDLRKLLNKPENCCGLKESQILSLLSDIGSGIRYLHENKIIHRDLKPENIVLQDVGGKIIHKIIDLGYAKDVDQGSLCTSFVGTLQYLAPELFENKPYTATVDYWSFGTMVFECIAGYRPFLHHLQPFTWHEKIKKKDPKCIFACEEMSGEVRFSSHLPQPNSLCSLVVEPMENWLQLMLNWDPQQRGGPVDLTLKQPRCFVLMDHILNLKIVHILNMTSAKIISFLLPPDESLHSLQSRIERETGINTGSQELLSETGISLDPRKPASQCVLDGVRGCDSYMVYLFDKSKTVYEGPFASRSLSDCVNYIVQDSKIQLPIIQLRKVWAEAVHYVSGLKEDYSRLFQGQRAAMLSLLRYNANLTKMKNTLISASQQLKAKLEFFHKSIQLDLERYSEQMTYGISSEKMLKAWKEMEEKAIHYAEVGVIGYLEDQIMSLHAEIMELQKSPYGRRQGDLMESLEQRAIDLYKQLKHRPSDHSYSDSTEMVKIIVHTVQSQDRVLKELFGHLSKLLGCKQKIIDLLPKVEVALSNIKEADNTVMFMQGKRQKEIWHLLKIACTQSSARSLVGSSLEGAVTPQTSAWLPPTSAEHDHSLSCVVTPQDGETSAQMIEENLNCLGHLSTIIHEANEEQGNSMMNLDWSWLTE
# Chain of LCK (human) (P06239 whole entry, looked up): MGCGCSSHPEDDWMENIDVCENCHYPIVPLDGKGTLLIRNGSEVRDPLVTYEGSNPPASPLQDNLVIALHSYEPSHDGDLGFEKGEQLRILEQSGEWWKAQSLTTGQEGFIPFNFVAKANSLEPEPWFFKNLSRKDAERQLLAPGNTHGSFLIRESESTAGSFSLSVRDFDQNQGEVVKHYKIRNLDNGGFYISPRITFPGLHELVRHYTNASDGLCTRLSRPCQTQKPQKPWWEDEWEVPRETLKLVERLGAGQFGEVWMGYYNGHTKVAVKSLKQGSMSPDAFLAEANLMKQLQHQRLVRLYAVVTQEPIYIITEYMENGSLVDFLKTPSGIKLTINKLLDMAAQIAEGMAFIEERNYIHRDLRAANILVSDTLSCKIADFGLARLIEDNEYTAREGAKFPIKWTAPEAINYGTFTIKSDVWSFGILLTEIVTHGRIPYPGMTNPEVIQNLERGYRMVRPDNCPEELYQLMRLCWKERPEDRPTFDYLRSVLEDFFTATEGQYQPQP
# Chain of MAPK14 (human) (Q16539 whole entry, looked up): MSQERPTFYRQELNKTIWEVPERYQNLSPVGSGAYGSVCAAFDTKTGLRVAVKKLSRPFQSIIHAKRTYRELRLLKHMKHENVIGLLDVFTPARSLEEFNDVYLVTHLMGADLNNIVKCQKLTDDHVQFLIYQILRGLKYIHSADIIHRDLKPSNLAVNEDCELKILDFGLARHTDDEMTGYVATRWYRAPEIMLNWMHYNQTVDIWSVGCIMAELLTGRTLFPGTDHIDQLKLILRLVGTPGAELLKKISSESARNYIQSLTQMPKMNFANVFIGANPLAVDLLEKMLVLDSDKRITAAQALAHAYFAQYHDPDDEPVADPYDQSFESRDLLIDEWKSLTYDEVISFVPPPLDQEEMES
# Chain of GAK (human) (O14976 whole entry, looked up): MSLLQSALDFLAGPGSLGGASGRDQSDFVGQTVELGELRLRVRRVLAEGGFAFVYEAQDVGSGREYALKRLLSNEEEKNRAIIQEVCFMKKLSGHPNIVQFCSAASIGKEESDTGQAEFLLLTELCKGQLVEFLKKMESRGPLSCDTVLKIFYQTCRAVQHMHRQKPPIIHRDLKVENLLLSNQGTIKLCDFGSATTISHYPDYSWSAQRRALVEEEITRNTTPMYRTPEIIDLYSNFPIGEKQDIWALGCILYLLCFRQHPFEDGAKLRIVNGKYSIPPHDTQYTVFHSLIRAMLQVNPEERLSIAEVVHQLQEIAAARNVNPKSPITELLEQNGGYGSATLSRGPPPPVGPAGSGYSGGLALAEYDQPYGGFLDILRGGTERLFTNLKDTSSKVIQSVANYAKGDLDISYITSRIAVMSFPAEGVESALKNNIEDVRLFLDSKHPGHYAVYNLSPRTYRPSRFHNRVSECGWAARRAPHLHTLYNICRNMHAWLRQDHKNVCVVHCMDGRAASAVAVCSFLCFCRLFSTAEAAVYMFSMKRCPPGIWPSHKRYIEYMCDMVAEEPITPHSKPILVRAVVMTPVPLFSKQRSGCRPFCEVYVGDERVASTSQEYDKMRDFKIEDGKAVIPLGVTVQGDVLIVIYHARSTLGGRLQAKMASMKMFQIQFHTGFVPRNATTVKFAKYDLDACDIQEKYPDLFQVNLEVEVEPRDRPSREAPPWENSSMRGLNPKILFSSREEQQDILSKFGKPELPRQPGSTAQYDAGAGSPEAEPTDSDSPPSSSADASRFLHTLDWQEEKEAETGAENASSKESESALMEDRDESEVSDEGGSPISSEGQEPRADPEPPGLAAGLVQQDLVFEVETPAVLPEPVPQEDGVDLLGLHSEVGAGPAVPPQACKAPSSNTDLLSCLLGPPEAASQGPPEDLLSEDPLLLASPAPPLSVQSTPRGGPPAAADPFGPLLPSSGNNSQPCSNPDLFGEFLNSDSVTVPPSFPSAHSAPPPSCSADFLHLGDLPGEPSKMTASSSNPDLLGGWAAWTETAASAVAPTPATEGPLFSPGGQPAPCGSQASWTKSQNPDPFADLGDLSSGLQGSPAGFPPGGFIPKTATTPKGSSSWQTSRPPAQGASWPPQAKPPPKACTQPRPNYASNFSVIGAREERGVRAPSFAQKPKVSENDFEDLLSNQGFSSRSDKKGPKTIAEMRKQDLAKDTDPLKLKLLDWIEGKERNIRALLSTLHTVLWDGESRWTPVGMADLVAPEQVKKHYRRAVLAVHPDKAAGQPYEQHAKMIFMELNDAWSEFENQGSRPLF
# Chain of GSK3A (human) (P49840 whole entry, looked up): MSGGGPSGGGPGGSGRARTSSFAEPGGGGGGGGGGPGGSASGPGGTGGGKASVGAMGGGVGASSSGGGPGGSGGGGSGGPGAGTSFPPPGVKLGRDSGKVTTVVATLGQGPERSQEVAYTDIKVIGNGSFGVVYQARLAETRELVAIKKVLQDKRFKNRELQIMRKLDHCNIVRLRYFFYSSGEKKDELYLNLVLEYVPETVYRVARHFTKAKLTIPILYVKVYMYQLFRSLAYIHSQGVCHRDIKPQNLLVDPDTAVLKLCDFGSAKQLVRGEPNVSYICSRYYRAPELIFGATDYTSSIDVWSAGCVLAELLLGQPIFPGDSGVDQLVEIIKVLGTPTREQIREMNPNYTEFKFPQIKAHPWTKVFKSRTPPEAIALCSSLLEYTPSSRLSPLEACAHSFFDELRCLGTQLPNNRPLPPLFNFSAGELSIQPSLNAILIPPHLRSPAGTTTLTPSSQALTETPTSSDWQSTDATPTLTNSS
# Chain of DAPK2 (human) (Q9UIK4 whole entry, looked up): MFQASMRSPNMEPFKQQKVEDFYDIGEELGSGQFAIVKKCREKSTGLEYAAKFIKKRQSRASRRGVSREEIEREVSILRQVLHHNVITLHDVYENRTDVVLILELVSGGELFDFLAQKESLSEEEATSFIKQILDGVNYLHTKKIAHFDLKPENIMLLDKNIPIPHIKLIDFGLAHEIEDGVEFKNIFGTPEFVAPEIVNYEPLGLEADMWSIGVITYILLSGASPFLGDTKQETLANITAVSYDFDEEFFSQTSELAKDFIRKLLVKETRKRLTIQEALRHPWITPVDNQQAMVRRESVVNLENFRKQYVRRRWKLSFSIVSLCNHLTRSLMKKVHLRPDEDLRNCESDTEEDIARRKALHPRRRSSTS
# Chain of ULK3 (human) (Q6PHR2 whole entry, looked up): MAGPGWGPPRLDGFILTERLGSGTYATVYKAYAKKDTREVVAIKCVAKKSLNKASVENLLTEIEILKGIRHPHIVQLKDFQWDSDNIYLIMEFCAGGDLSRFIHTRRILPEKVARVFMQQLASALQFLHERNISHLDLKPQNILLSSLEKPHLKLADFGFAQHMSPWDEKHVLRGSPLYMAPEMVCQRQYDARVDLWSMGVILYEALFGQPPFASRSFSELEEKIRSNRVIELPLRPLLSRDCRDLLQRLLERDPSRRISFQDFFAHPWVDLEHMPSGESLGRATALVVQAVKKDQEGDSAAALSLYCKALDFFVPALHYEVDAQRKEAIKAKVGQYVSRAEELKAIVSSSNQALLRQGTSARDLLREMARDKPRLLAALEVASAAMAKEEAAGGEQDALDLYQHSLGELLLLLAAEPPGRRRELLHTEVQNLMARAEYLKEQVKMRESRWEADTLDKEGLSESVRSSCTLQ
# Chain of MAP2K1 (human) (Q02750 whole entry, looked up): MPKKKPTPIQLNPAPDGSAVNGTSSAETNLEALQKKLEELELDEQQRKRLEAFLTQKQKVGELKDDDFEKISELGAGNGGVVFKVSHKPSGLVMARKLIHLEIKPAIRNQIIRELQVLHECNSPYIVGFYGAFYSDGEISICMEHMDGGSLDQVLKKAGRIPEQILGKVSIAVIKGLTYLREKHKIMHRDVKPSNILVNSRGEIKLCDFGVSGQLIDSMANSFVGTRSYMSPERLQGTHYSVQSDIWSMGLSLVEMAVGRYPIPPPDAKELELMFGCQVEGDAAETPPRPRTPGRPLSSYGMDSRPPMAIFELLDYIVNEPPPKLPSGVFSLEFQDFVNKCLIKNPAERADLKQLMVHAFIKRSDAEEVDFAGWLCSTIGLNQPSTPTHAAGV
# Chain of CDKL1 (human) (Q00532 whole entry, looked up): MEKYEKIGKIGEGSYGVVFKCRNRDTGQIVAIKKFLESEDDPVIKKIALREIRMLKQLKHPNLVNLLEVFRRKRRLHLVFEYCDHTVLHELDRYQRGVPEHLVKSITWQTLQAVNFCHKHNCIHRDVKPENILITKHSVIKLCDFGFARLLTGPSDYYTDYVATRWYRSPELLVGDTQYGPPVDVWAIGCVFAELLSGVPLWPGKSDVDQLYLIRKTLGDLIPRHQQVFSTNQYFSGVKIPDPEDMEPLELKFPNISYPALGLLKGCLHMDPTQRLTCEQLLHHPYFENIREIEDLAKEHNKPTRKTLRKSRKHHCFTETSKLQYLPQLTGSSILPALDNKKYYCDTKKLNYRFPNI
Compound,"kinase still bound, per cent of control (HUNK (human)) [%]","kinase still bound, per cent of control (PDPK1 (human)) [%]","kinase still bound, per cent of control (STK4 (human)) [%]","kinase still bound, per cent of control (DAPK2 (human)) [%]","kinase still bound, per cent of control (CAMK1D (human)) [%]","kinase still bound, per cent of control (ULK3 (human)) [%]","kinase still bound, per cent of control (GAK (human)) [%]","kinase still bound, per cent of control (MAP3K13 (human)) [%]","kinase still bound, per cent of control (NEK11 (human)) [%]","kinase still bound, per cent of control (FGFR3 (human)) [%]","kinase still bound, per cent of control (PRKACB (human)) [%]","kinase still bound, per cent of control (CDKL1 (human)) [%]","kinase still bound, per cent of control (INSR (human)) [%]","kinase still bound, per cent of control (MAP2K1 (human)) [%]","kinase still bound, per cent of control (STK32C (human)) [%]","kinase still bound, per cent of control (SGK3 (human)) [%]","kinase still bound, per cent of control (PKN2 (human)) [%]","kinase still bound, per cent of control (CHEK1 (human)) [%]","kinase still bound, per cent of control (PRKD1 (human)) [%]","kinase still bound, per cent of control (MUSK (human)) [%]",other results
N#CCNC(=O)c1ccc(-c2ccnc(Nc3ccc(N4CCOCC4)cc3)n2)cc1,100,100,100,41,40,0.25,3.4,77,100,86,36,60,57,100,100,59,47,100,22,100,"kinase still bound, per cent of control (FES (human)): 100%; kinase still bound, per cent of control (LCK (human)): 90%; kinase still bound, per cent of control (AURKB (human)): 69%; kinase still bound, per cent of control [1]: 61%; kinase still bound, per cent of control (GSK3A (human)): 100%; kinase still bound, per cent of control (FRK (human)): 98%; kinase still bound, per cent of control (CAMK2A (human)): 26%; kinase still bound, per cent of control (BMPR2 (human)): 100%; kinase still bound, per cent of control (MAPK14 (human)): 100%; kinase still bound, per cent of control (CHUK (human)): 0%; kinase still bound, per cent of control (GRK4 (human)): 10%; kinase still bound, per cent of control (HIPK3 (human)): 17%; kinase still bound, per cent of control (RPS6KA1 KD2 (human)): 80%; kinase still bound, per cent of control (ULK1 (human)): 40%; kinase still bound, per cent of control (CAMK1G (human)): 30%; kinase still bound, per cent of control (DCLK1 (human)): 52%; kinase still bound, per cent of control (IRAK1 (human)): 1.3%; kinase still bound, per cent of control (KIT (human)): 100%; kinase still bound, per cent of control (CSK (human)): 100%; kinase still bound, per cent of control (LIMK2 (human)): 68%"
COc1cc2ncn(-c3cc(OCc4ccccc4C(F)(F)F)c(C(N)=O)s3)c2cc1OC,82,66,56,36,100,77,4.1,100,100,20,100,72,84,67,100,83,39,100,100,100,"kinase still bound, per cent of control (FES (human)): 87%; kinase still bound, per cent of control (LCK (human)): 34%; kinase still bound, per cent of control (AURKB (human)): 34%; kinase still bound, per cent of control [1]: 88%; kinase still bound, per cent of control (GSK3A (human)): 100%; kinase still bound, per cent of control (FRK (human)): 82%; kinase still bound, per cent of control (CAMK2A (human)): 76%; kinase still bound, per cent of control (BMPR2 (human)): 69%; kinase still bound, per cent of control (MAPK14 (human)): 100%; kinase still bound, per cent of control (CHUK (human)): 86%; kinase still bound, per cent of control (GRK4 (human)): 18%; kinase still bound, per cent of control (HIPK3 (human)): 77%; kinase still bound, per cent of control (RPS6KA1 KD2 (human)): 63%; kinase still bound, per cent of control (ULK1 (human)): 92%; kinase still bound, per cent of control (CAMK1G (human)): 72%; kinase still bound, per cent of control (DCLK1 (human)): 49%; kinase still bound, per cent of control (IRAK1 (human)): 54%; kinase still bound, per cent of control (KIT (human)): 30%; kinase still bound, per cent of control (CSK (human)): 97%"
C[C@@H](Oc1cc(-c2cnn(C3CCNCC3)c2)cnc1N)c1c(Cl)ccc(F)c1Cl,74,100,3.9,97,37,8.8,79,10,98,22,100,81,0.2,64,100,100,26,91,2.4,0.3,"kinase still bound, per cent of control [2]: 6.8%; kinase still bound, per cent of control (LCK (human)): 0.15%; kinase still bound, per cent of control (GSK3A (human)): 100%; kinase still bound, per cent of control (FRK (human)): 15%; kinase still bound, per cent of control (CAMK2A (human)): 100%; kinase still bound, per cent of control (BMPR2 (human)): 28%; kinase still bound, per cent of control (MAPK14 (human)): 100%; kinase still bound, per cent of control (CHUK (human)): 100%; kinase still bound, per cent of control (GRK4 (human)): 14%; kinase still bound, per cent of control (HIPK3 (human)): 92%; kinase still bound, per cent of control (RPS6KA1 KD2 (human)): 54%; kinase still bound, per cent of control (ULK1 (human)): 1%; kinase still bound, per cent of control (CAMK1G (human)): 76%; kinase still bound, per cent of control (DCLK1 (human)): 2%; kinase still bound, per cent of control (IRAK1 (human)): 0%; kinase still bound, per cent of control (KIT (human)): 43%; kinase still bound, per cent of control (LIMK2 (human)): 4.6%"
CNC(=O)c1cc(Oc2ccc(NC(=O)Nc3ccc(Cl)c(C(F)(F)F)c3)cc2)ccn1,70,76,81,87,96,92,80,100,100,31,100,70,100,100,100,82,100,91,32,0.1,"kinase still bound, per cent of control (FES (human)): 74%; kinase still bound, per cent of control (GSK3A (human)): 67%; kinase still bound, per cent of control (CAMK2A (human)): 94%; kinase still bound, per cent of control (BMPR2 (human)): 78%; kinase still bound, per cent of control (MAPK14 (human)): 0.2%; kinase still bound, per cent of control (CHUK (human)): 81%; kinase still bound, per cent of control (GRK4 (human)): 100%; kinase still bound, per cent of control (HIPK3 (human)): 0.6%; kinase still bound, per cent of control (RPS6KA1 KD2 (human)): 100%; kinase still bound, per cent of control (ULK1 (human)): 100%; kinase still bound, per cent of control (CAMK1G (human)): 99%; kinase still bound, per cent of control (DCLK1 (human)): 98%; kinase still bound, per cent of control (IRAK1 (human)): 70%; kinase still bound, per cent of control (KIT (human)): 0%; kinase still bound, per cent of control (CSK (human)): 70%; kinase still bound, per cent of control (LIMK2 (human)): 57%"
